Assay [1] deals with T1, Dual specificity tyrosine-phosphorylation-regulated kinase 3 (Homo sapiens) (UniProt O43781).
T1 sequence (whole entry): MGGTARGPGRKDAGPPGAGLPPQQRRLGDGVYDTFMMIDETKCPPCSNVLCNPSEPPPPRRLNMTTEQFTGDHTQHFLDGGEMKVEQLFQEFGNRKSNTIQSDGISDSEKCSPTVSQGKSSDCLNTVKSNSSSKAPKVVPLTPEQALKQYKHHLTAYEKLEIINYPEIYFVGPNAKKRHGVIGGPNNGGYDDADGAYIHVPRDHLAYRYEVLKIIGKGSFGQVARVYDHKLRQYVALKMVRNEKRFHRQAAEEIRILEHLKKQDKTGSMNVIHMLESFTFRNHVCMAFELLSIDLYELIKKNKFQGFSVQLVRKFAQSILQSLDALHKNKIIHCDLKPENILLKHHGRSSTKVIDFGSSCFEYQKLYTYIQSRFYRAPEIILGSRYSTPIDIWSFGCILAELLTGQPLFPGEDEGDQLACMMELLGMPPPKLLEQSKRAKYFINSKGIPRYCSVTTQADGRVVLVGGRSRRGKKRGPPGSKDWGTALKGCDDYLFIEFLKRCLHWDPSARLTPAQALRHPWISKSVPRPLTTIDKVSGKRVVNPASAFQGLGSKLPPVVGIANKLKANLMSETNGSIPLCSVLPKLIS
In words: Inhibition of human DYRK3 at 1.82 nM by HotSpot assay relative to control.

Assay [2] has as its target T2, Serine/threonine-protein kinase haspin (Homo sapiens) (UniProt Q8TF76).
T2 sequence (whole entry): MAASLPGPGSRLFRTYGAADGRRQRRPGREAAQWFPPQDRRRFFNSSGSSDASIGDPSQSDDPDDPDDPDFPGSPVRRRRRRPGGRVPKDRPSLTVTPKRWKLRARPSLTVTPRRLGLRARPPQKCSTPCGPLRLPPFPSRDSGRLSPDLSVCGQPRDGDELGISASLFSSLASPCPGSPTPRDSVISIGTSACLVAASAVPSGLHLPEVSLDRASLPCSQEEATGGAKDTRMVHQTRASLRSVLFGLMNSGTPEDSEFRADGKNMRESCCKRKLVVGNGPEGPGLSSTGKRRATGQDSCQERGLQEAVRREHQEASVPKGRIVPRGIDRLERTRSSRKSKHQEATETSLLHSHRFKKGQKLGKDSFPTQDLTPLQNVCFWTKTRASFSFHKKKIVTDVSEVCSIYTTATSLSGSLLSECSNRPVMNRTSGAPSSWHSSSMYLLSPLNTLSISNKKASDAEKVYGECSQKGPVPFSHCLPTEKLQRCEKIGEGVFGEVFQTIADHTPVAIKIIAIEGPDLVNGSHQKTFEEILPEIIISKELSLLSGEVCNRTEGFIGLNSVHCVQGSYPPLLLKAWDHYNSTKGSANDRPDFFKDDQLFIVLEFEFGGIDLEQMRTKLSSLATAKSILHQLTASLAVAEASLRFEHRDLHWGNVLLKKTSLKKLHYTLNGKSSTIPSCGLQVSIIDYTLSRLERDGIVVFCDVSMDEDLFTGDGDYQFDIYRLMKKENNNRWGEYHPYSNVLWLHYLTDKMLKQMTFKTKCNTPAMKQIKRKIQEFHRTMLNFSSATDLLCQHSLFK
Put plainly: Inhibition of human Haspin at 1.82 nM by HotSpot assay relative to control.

Assay [3] has as its target Mitogen-activated protein kinase kinase kinase kinase 5 (Homo sapiens) (UniProt Q9Y4K4). Put plainly: Inhibition of human KHS at 1.82 nM by HotSpot assay relative to control.
The target of assay [4] is T3, Mitogen-activated protein kinase kinase kinase 2 (Homo sapiens) (UniProt Q9Y2U5).
T3 sequence (whole entry): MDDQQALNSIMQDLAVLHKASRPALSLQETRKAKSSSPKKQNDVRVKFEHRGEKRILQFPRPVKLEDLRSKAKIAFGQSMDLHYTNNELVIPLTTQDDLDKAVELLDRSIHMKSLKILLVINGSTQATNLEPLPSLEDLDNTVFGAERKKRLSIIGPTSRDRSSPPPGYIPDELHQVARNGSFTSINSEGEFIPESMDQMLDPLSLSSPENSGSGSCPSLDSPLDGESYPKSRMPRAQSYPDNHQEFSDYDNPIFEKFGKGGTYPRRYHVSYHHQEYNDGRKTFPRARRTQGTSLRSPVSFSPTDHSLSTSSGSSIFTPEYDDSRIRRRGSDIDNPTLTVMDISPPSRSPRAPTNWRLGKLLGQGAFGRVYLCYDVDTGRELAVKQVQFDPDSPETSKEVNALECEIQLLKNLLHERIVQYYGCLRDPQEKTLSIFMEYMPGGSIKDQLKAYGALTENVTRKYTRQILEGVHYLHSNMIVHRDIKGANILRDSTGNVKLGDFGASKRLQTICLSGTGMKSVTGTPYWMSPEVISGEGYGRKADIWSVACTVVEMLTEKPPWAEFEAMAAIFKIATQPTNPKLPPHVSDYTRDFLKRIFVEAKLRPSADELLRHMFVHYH
Put plainly: Inhibition of human MEKK2 at 1.82 nM by HotSpot assay relative to control.

Assay [5] deals with Platelet-derived growth factor receptor alpha (Homo sapiens) (UniProt P16234). In words: Inhibition of human PDGFRa at 1.82 nM by HotSpot assay relative to control.
Assay [6] has as its target MAP kinase-activated protein kinase 2 (Homo sapiens) (UniProt P49137). Put plainly: Inhibition of human MAPKAPK2 at 18.6 nM by HotSpot assay relative to control.
Assay [7] concerns the target MAP kinase-interacting serine/threonine-protein kinase 1 (Homo sapiens) (UniProt Q9BUB5). In words: Inhibition of human MNK1 at 18.6 nM by HotSpot assay relative to control.
Assay [8] addresses T4, Serine/threonine-protein kinase Sgk1 (Homo sapiens) (UniProt O00141).
T4 sequence (whole entry): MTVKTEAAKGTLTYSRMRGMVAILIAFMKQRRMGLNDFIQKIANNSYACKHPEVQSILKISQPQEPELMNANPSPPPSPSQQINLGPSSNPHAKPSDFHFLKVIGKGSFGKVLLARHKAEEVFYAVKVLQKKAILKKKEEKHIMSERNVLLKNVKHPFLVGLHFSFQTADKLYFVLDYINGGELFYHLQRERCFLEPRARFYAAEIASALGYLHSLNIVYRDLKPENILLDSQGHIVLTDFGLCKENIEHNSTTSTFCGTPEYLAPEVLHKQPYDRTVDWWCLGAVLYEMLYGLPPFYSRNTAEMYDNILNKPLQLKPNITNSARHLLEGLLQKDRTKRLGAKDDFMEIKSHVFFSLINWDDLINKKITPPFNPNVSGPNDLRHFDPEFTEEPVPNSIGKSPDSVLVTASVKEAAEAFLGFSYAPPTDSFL
Put plainly: Inhibition of human SGK1 at 18.6 nM by HotSpot assay relative to control.

For assay [9], the target named is Serine/threonine-protein kinase SIK2 (Homo sapiens) (UniProt Q9H0K1). In words: Inhibition of human SIK2 at 18.6 nM by HotSpot assay relative to control.
The species named for the next assay is Homo sapiens. In words: Inhibition of human TAO1 at 18.6 nM by HotSpot assay relative to control.

Molecules are shown by their SMILES.

2 molecules from ChEMBL document CHEMBL5653615 (J Biol Chem, 2013) can be followed below.

One may read the inhibition as the change of the read-out against control, counted positive when it falls.

Platelet-derived growth factor receptor alpha (Homo sapiens), sequence (P16234 whole entry): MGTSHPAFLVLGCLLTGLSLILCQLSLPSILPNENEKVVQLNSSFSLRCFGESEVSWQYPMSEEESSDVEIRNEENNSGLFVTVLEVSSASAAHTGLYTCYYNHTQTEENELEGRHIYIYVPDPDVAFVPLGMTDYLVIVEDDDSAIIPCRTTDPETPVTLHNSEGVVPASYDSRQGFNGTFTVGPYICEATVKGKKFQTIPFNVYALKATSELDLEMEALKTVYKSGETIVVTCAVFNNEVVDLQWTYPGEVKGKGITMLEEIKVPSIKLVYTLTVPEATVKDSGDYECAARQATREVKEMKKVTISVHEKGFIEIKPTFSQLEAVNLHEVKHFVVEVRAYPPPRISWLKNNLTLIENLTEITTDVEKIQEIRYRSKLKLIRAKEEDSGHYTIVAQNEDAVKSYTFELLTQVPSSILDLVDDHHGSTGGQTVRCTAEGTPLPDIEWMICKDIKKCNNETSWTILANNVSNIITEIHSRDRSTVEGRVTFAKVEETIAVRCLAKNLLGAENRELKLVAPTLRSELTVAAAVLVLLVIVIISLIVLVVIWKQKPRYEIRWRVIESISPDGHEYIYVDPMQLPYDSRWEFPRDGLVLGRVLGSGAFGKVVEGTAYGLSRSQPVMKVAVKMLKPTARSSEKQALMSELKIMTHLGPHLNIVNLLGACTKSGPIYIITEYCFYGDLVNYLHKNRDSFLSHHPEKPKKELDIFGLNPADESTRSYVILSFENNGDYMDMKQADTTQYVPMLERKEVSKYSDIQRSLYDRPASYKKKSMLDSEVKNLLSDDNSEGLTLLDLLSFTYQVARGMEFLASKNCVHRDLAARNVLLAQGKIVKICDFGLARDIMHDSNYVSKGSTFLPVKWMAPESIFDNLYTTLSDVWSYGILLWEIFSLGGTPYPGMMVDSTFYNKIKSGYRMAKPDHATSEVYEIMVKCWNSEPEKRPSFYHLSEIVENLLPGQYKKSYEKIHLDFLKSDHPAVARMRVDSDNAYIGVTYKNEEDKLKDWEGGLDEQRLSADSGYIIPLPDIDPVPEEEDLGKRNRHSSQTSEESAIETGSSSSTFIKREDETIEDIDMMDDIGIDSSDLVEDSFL
MAP kinase-activated protein kinase 2 (Homo sapiens), sequence (P49137 whole entry, looked up): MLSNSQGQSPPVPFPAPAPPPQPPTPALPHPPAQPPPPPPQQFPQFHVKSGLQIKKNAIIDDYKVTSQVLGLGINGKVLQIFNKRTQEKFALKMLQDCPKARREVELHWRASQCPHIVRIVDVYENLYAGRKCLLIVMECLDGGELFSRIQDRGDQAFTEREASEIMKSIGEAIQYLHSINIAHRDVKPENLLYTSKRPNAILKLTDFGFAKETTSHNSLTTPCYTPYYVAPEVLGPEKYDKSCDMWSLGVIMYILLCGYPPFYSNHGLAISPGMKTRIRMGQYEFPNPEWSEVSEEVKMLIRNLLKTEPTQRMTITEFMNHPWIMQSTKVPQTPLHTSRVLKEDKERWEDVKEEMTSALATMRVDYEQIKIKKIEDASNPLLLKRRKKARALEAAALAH
Serine/threonine-protein kinase SIK2 (Homo sapiens), sequence (Q9H0K1 whole entry, looked up): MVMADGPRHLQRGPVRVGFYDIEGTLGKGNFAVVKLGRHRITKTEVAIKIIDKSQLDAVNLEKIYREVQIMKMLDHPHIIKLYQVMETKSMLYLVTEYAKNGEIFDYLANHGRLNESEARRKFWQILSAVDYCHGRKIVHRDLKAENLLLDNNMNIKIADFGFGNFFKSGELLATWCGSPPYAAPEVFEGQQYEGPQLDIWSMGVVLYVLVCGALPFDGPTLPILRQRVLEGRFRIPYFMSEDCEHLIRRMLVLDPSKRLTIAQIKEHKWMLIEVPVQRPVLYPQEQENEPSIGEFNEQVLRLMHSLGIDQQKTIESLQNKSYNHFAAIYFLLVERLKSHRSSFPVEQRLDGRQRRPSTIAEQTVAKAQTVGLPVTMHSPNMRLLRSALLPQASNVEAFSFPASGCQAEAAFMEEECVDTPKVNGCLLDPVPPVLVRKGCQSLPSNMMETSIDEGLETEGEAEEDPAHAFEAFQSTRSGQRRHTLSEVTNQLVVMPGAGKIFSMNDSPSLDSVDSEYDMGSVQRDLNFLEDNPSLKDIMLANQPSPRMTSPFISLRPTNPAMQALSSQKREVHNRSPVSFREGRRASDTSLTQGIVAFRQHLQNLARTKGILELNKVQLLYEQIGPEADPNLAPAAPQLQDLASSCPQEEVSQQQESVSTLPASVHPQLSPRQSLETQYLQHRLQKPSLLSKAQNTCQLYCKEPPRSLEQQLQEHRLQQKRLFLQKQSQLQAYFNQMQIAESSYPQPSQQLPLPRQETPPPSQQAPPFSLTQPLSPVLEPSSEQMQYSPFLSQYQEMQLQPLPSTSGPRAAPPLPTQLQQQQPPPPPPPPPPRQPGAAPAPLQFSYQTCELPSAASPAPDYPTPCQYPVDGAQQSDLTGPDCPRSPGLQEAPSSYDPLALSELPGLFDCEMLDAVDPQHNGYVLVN
Mitogen-activated protein kinase kinase kinase kinase 5 (Homo sapiens), sequence (Q9Y4K4 whole entry, looked up): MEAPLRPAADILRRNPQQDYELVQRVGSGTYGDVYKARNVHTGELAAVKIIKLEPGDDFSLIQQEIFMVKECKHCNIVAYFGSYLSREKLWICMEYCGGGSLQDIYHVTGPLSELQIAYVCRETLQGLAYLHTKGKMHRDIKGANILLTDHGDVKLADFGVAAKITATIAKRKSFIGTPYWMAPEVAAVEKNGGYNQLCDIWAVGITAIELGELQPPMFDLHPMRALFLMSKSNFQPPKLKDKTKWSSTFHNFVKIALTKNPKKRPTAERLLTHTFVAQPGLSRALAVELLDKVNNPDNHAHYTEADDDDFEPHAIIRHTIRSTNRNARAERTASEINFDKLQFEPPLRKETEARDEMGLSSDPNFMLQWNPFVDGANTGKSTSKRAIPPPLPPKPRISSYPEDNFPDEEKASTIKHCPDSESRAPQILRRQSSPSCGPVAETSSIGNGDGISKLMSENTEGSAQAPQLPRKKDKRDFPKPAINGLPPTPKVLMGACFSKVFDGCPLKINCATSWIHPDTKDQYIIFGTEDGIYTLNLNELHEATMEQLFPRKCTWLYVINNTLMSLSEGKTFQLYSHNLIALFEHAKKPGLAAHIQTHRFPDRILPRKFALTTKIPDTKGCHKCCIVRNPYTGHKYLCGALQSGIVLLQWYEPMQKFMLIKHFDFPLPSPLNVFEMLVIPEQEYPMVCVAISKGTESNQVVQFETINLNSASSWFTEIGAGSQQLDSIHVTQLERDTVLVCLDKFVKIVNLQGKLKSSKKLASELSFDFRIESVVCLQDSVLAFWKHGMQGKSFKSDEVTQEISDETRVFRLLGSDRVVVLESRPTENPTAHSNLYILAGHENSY
MAP kinase-interacting serine/threonine-protein kinase 1 (Homo sapiens), sequence (Q9BUB5 whole entry, looked up): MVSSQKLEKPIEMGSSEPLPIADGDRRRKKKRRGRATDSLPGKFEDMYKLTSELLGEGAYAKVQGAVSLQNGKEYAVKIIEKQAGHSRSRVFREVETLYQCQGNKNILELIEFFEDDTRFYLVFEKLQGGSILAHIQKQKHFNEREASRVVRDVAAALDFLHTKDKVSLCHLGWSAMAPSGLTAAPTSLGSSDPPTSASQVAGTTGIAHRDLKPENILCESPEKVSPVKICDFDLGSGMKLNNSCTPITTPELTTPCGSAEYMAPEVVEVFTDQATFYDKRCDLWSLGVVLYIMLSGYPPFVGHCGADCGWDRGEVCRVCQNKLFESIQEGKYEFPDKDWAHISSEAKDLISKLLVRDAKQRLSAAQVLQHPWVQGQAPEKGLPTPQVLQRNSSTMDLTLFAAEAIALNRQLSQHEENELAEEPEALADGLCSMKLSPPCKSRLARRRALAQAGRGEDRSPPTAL

In the case of `C[C@@]1(C(=O)Nc2ccc(F)nc2)CCCN1c1nc(Nc2cc(C3CC3)n[nH]2)c2cccn2n1`, the inhibition in assay [1] was 8.06%; in assay [2] it was -1.25%; in assay [3] it was -3.57%; in [4] it was -7.18%; in assay [5], 0.58%.
`C[C@]1(O)C[C@@H](c2nc(-c3ccc4ccc(-c5ccccc5)nc4c3)c3c(N)nccn32)C1`: the inhibition in [6] was 5.71%; in assay [7], 0.3%; in assay [8], 3.48%; in [9] it was -8.94%; in the assay filed under Homo sapiens, 1.8%.
